Data set [1] has as its system PSMA+ LNCaP cells. The data set can be described thus: In vitro cytotoxicity, MTT assay. In kind it is cell-based, human. The settings on record: 72 h. The procedure: (§1) A series of in vitro cytotoxicity assays were performed to understand the anti-cancer properties of platinum(IV)-encapsulated nanoparticles, using human prostate cancer cells, and directly compared its efficacy to that of free cisplatin. The choice of the cancer cells was based on the presence of PSMA, as mentioned before. […] As shown in this figure, the Pt(IV)encapsulated polymeric nanoparticles containing PSMA aptamers on the surface (Pt—NP-Apt) were highly cytotoxic to the LNCaP cells, which up-regulate PSMA on the surface, giving an IC50 value of 0.03 μM. […] The PSMA^+ aptamer targeted Pt(IV)-encapsulated PLGA-b-PEG nanoparticles (Pt—Np-Apt) were 80 times more toxic in the PSMA LNCaP cells, indicating potential application of these nanoparticles in human prostate cancer.

Data set [2] concerns PC3 cells. The data set can be described thus: In vitro cytotoxicity, MTT assay. The settings on record: 72 h. In kind it is cell-based, human. As for the experimental part: as §1
On the technique in general: Tetrazolium assays rely on reduction of a dye to a coloured formazan, in cell work by metabolically active cells.

The subject of data set [3] is Male Sprague Dawley Rats. The data set can be described thus: Maximum tolerated dose (MTD) study, intravenous. In kind it is in vivo. The settings on record: for Death: 3 rats; for dose tolerated by the rats / MTD: i.v.; for dose tolerated by the rats: survival; for MTD: 14 days monitoring. An excerpt: The maximum tolerated dose (MTD) of chemotherapeutic agents may be a critical factor for achieving optimal therapeutic benefit. The effectiveness of chemotherapeutic agents is generally proportional to the dose of the agents at their targets; however, the dose may be limited by systemic toxicity. In this non-limiting example, the therapeutic effectiveness of a platinum(IV) prodrug was attempted to be increased by increasing the maximum tolerated dose (MTD) of the prodrug by using a polymeric nanoparticle drug delivery systems. Various doses of cisplatin, Pt(IV)-prodrug (compound 1 from Example 1), Pt—NP (from Example 1), or PLGA-PEG-NP (control, nanoparticles not comprising platinum complexes) were injected intravenously and the MTD was estimated based on the threshold at which all […] survived.
Male Sprague Dawley Rats were used for MTD determination with intravenous administration. All rats treated with plain nanoparticles tolerated these doses. In the Pt—NP group, rats receiving doses up to 40 mg/kg tolerated the dose, but two of three in the 50 and 60-mg/kg groups died. Only the dose of 20 mg/kg free cisplatin or Pt(IV)-prodrug were tolerated by the rats. To further define the MTD, overall toxicity was monitored for 14 days. As a sign of toxicity, the body weights of rats were measured.

For data set [4] the following is noted: 1 h post administration, literature value; cited from earlier work.
A short description of data set [5]: Cyclic voltammetry, Pt(IV)/Pt(II) reduction potential. In kind it is physicochemical. As for the experimental part: The identity of the platinum species released from the polymeric nanoparticles was determined by ESI-MS. […] The redox potentials were also investigated for reduction of compound 1 at various pH values. […] NPs before reaching the nuclear DNA.

Data set [6] is described as follows: Blood circulation and excretion studies. In kind it is in vivo. The settings on record: rat, 2 mg/kg i.v., 1 h post administration. As for the experimental part:
Male Sprague Dawley rats were used in this study. Separate groups of animals received i.v. injections of Pt—NP (2 mg/kg) or Pt(IV)-prodrug (2 mg/kg) and were placed in metabolism cages. Blood was collected at predetermined time points in heparinized tubes. Whole organs or representative tissue samples were removed and weighed where necessary. Urine was collected for 24 h. Plasma was obtained from the blood samples by […]. Samples were analyzed for their platinum content using a Perkin Elmer Flameless Atomic Absorption Spectrophotometer.

pIC50: −log10 of the molar value. Read-outs that look alike come from different tables or passages of the source.

By pIC50 is commonly meant the negative decadic logarithm of the IC50, by convention in mol/L. A lower pIC50 goes with a high IC50. As usually defined, the MTD is the largest dose that counted as tolerated. A low value points to poorer tolerability.

On to “[cis-Pt(NH3)2Cl2] [cisplatin, reference compound]”, for which the results for the negative-log IC50 (pIC50) in data set [1] and in data set [2] were 5.62 and 6.74, respectively. Moreover, the Death in data set [3] (5 mg/kg i.v.) came out at 0; in data set [3] (10 mg/kg i.v.), 0; in data set [3] (20 mg/kg i.v.), 0; in data set [3] (40 mg/kg i.v.) it was 3. Besides, the “dose tolerated by the rats” value in data set [3] was 20 mg/kg. The same substance gave a maximal tolerated dose (MTD) in data set [3] (rats) of 20 mg/kg. Further, in data set [4], the “platinum dose remaining in the systemic circulation” value is 1.5%.

For “c,c,t-[Pt(NH3)2(O2CCH2CH2CH2CH2CH2)2Cl2] [compound 1]”, the “Pt(IV)/Pt(II) couple, irreversible cyclic voltammetric response” value in data set [5] (1:4 DMF-sodium phosphate buffer, pH 6.0) is listed as roughly −0.243 V vs. NHE; in data set [5] (1:4 DMF-sodium phosphate buffer, pH 7.4) it was roughly −0.233 V vs. NHE; in data set [5] (MeCN-0.1 M TBAPF6) it was roughly −0.805 V vs. NHE. Moreover, the Death is listed as 0 in data set [3] (5 mg/kg i.v.), 0 in data set [3] (10 mg/kg i.v.), 0 in data set [3] (20 mg/kg i.v.) and 2 in data set [3] (40 mg/kg i.v.). Also, the “dose tolerated by the rats” value in data set [3] was 20 mg/kg. Moreover, the MTD in data set [3] (rats) worked out at 20 mg/kg. For the same substance, the body weight change entry in data set [3] (rats, up to 20 mg/kg, 14 days) is “did not show any weight loss”. Also, in data set [6], the “platinum dose remaining in the systemic circulation” value amounted to 15.6%.
